According to US11648254B2 (Kumquat Biosciences Inc., priority 2021, dated 2023):
Like-named read-outs stand apart in the source and are kept apart here.

Assays:
[1] = system: NCI-H1975 cells (EGFR T790M L858R); assay: EGFR-SOS cellular inhibition assay (CellTiter-Glo, 3D); assay type: cell-based
[2] = system: MIA PaCa-2 cells (K-Ras G12C); assay: Ras-SOS cellular growth inhibition assay (CellTiter-Glo, 3D); assay type: cell-based
Description: MIA PaCa-2 (ATCC CRL-1420) and NCI-H1792 (ATCC CRL-5895) cell lines comprise a G12C mutation can be used to assess Ras cellular signaling in vitro, e.g., in response to a subject compound of the present disclosure. […] Cell culture medium (comprising, for example, MIA PaCa-2 cells) is prepared with DMEM/Ham's F12 (e.g., with stable Glutamine, 10% FCS, and 2.5% Horse Serum. NCI-H1792 culture medium is prepared with RPMI 1640 (e.g., with stable Glutamine) and 10% FCS. A CellTiter-Glo (CTG) luminescent based assay (Promega) is used to assess growth of the cells, as a measurement of the ability of the compounds herein to inhibit Ras signaling in the cells. The cells (e.g., 800-1200 per well) are seeded in their respective culture medium in standard tissue culture-treated ultra-low attachment surface 96-well format plates (Corning Costar #3474). The day after plating, cells are treated with a dilution series (e.g., a 9 point 3-fold dilution series) of the compounds herein (e.g., approximately 125 μl final volume per well). Cell viability can be monitored (e.g., approximately 5 days later) according to the manufacturer's recommended instructions, where the CellTiter-Glo reagent is added (e.g., approximately 65 μl), vigorously mixed, covered, and placed on a plate shaker (e.g., approximately for 20 min) to ensure sufficient cell lysis prior to assessment of luminescent signal. The IC50 values are determined using the four-parameter fit. The resulting IC50 value is a measurement of the ability of the compounds herein to reduce cell growth of Ras-driven cells as representative tumor cells.

SOS1 = SOS1 (Homo sapiens (Human), UniProt Q07889); assay: Ras-SOS interaction assay (HTRF); assay type: biochemical
Excerpt: The ability of any compound of the present disclosure to reduce a Ras protein signaling output by, e.g., interfering or disrupting interaction (or binding) between SOS1 and a Ras protein can be assessed in vitro. For example, the equilibrium interaction of human SOS1 (hSOS1) with human wildtype Kras or K-Ras mutant (e.g., hK-Ras G12C mutant, or hK-RasG12C) can be assessed as a proxy or an indication for a subject compound's ability to inhibit SOS. Detection of such interaction is achieved by measuring homogenous time-resolved fluorescence resonance energy transfer (HTRF) from (i) a fluorescence resonance energy transfer (FRET) donor (e.g., antiGST-Europium) that is bound to GST-tagged K-RasG12C to (ii) a FRET acceptor (e.g., anti-6His-XL665) bound to a His-tagged hSOS1.
The assay buffer can contain 5 mM HEPES pH 7.4, 150 mM NaCl, 10 mM EDTA, 1 mM DTT, 0.05% BSA, 0.0025% (v/v) Igepal and 100 mM KF. A Ras working solution is prepared in assay buffer containing typically 10 nM of the protein construct (e.g., GST-tagged hK-RasG12C) and 2 nM of the FRET donor (e.g., antiGST-Eu(K) from Cisbio, France). A SOS1 working solution is prepared in assay buffer containing typically 10 nM of the protein construct (e.g., His-hSOS1) and 10 nM of the FRET acceptor (e.g., anti-6His-XL665 from Cisbio, France). An inhibitor control solution is prepared in assay buffer containing 10 nM of the FRET acceptor without the SOS1 protein.
A fixed reaction mixture with or without test compound is transferred into a 384-well plate. Ras working solution is added to all wells of the test plate. SOS1 working solution is added to all wells except for those that are subsequently filled the inhibitor control solution. After approximately 60 min incubation, the fluorescence is measured with a M1000Pro plate reader (Tecan) using HTRF detection (excitation 337 nm, emission 1: 620 nm, emission 2: 665 nm). Compounds are tested in duplicates at different concentrations (for example, 10 μM, 2.5 μM, 0.63 μM, 0.16 μM, 0.04 μM, 0.01 μM test compound). The ratiometric data (i.e., emission 2 divided by emission 1) is used to calculate IC50 values against SOS1 using GraphPad Prism (GraphPad software).

[3] = NCI-H1975, 3D proliferation, about 5 days, read-out: Bio-Cell-Prolif-3D (H1975 IC50)
[4] = NCI-H1975, EGFR T790M L858R, read-out: IC50 in inhibiting growth of NCI-H1975 cell line
[5] = MIA PaCa-2, 3D proliferation, about 5 days, read-out: Bio-Cell-Prolif-3D (MiaPaca2 IC50)
[6] = MIA PaCa-2, read-out: IC50 in inhibiting MIA PaCa-2 cell growth
[7] = K-RasG13D utilized, read-out: IC50 inhibition of SOS
[8] = K-RasG13D, read-out: IC50 value against SOS1
[9] = Homo sapiens, 120 h, NCI-H1975, 3D proliferation, about 5 days, read-out: Bio-Cell-Prolif-3D (H1975 IC50)
[10] = Homo sapiens, MIA PaCa-2, 120 h, MIA PaCa-2, 3D proliferation, about 5 days, read-out: Bio-Cell-Prolif-3D (MiaPaca2 IC50)
[11] = Homo sapiens, NCI-H1975, EGFR T790M L858R, read-out: IC50 in inhibiting growth of NCI-H1975 cell line
[12] = Homo sapiens, MIA PaCa-2, MIA PaCa-2, read-out: IC50 in inhibiting MIA PaCa-2 cell growth

| Compound | IC50 (SOS1; [7]) | IC50 (SOS1; [8]) | IC50 [1, 9] | IC50 [2, 10] | IC50 [2, 12] | further results |
| --- | --- | --- | --- | --- | --- | --- |
| 4-(4-((1-(3-(difluoro(tetrahydrofuran-3-yl)methyl)-2-fluorophenyl)ethyl)amino)-7-methoxy-2-methylpyrido[2,3-d]pyrimidin-6-yl)tetrahydro-2H-thiopyran 1,1-dioxide [Compound 148] | < 0.1 µM | < 0.05 µM | – | – | – | IC50 [1, 3]: ≤ 1 µM; IC50 [1, 4]: < 0.5 µM; IC50 [2, 5]: ≤ 1 µM; IC50 [2, 6]: < 0.5 µM |
| Cc1nc(N[C@H](C)c2cccc(C(F)F)c2F)c2cc(C3CCN(C)CC3)c(OCCN(C)C)nc2n1 [Compound 155] | – | – | ≤ 1 µM | ≤ 1 µM | – | – |
| COc1nc2nc(C)nc(N[C@H](C)c3cccc(C(F)(F)C4CCN(C(C)C)CC4)c3F)c2cc1C1(C#N)CC1 [Compound 377, (R)-1-(4-((1-(3-(difluoro(1-isopropylpiperidin-4-yl)methyl)-2-fluorophenyl)ethyl)amino)-7-methoxy-2-methylpyrido[2,3-d]pyrimidin-6-yl)cyclopropane-1-carbonitrile] | – | – | ≤ 1 µM | ≤ 1 µM | < 0.5 µM | IC50 [1, 11]: < 0.5 µM |
| COc1nc2nc(C)nc(N[C@H](C)c3cccc(C(F)(F)C4CCN(C(C)C)CC4)c3F)c2cc1C1CCN(C)CC1 [Compound 424, (R)-N-(1-(3-(difluoro(1-isopropylpiperidin-4-yl)methyl)-2-fluorophenyl)ethyl)-7-methoxy-2-methyl-6-(1-methylpiperidin-4-yl)pyrido[2,3-d]pyrimidin-4-amine] | < 0.1 µM | < 0.05 µM | – | – | – | – |
| COc1nc2nc(CCN3CCC3)nc(N[C@H](C)c3cccc(C(C)(F)F)c3F)c2cc1C1(C#N)CC1 [Compound 425, (R)-1-(2-(2-(azetidin-1-yl)ethyl)-4-((1-(3-(1,1-difluoroethyl)-2-fluorophenyl)ethyl)amino)-7-methoxypyrido[2,3-d]pyrimidin-6-yl)cyclopropane-1-carbonitrile] | < 0.1 µM | < 0.05 µM | – | – | – | – |
| COc1nc2nc(CCN3CCC3)nc(N[C@H](C)c3cccc(C(F)(F)F)c3F)c2cc1C1(C#N)CC1 [Compound 426, (R)-1-(2-(2-(azetidin-1-yl)ethyl)-4-((1-(2-fluoro-3-(trifluoromethyl)phenyl)ethyl)amino)-7-methoxypyrido[2,3-d]pyrimidin-6-yl)cyclopropane-1-carbonitrile] | < 0.1 µM | – | – | – | – | – |
| (R)-4-(4-((1-(3-(2-(2-(dimethylamino)ethoxy)-1,1-difluoroethyl)-2-fluorophenyl)ethyl)amino)-7-methoxy-2-methylpyrido[2,3-d]pyrimidin-6-yl)tetrahydro-2H-thiopyran 1,1-dioxide [Compound 271] | – | – | – | – | – | IC50 [1, 3]: ≤ 1 µM; IC50 [1, 4]: < 0.5 µM; IC50 [2, 5]: ≤ 1 µM; IC50 [2, 6]: < 0.5 µM |

The next lines start with results.

| IC50 (SOS1; [7]) | IC50 (SOS1; [8]) | IC50 [1, 9] | IC50 [2, 10] | IC50 [2, 12] | Compound | further results |
| --- | --- | --- | --- | --- | --- | --- |
| – | – | ≤ 1 µM | ≤ 1 µM | < 0.5 µM | COc1nc2nc(C)nc(N[C@H](C)c3cccc(C(F)(F)C4CCN(C)CC4)c3F)c2cc1N1CCN(C(C)C)CC1 [Compound 182, (R)-N-(1-(3-(difluoro(1-methylpiperidin-4-yl)methyl)-2-fluorophenyl)ethyl)-6-(4-isopropylpiperazin-1-yl)-7-methoxy-2-methylpyrido[2,3-d]pyrimidin-4-amine] | IC50 [1, 11]: < 0.5 µM |
| < 0.1 µM | < 0.05 µM | – | – | < 0.5 µM | COc1nc2nc(C)nc(N[C@H](C)c3cccc(C(F)(F)F)c3C)c2cc1C1CCN(C)CC1 [Compound 380, (R)-7-methoxy-2-methyl-N-(1-(2-methyl-3-(trifluoromethyl)phenyl)ethyl)-6-(1-methylpiperidin-4-yl)pyrido[2,3-d] pyrimidin-4-amine] | – |
| < 0.1 µM | < 0.05 µM | – | – | – | COc1nc2nc(CCN3CCC3)nc(N[C@H](C)c3cccc(C(F)(F)F)c3C)c2cc1C1(C#N)CC1 [Compound 427, (R)-1-(2-(2-(azetidin-1-yl)ethyl)-7-methoxy-4-((1-(2-methyl-3-(trifluoromethyl)phenyl)ethyl)amino)pyrido[2,3-d]pyrimidin-6-yl) cyclopropane-1-carbonitrile] | – |
